Assay results: paper PMC12884772, “Macrophagic Sclerostin Loop2‐ApoER2 Interaction Required by Sclerostin for Cardiovascular Protective Action” (Advanced Science, 2025)

Key:
[1] = tested on: human differentiated macrophages (THP‐1); assay: LPS‐induced inflammatory responses in human differentiated macrophages (THP‐1), siNC or siLrp8; assay type: cell-based
Procedure: (§1) To determine whether the suppressive effects of sclerostin on inflammatory responses in macrophages were dependent on ApoER2 in vitro, PMA (100 ng/mL, 48 h)‐induced human differentiated macrophages (THP‐1 cells, Procell Life Science & Technology, CL‐0233) and mouse macrophages (RAW 264.7 cells, ATCC, TIB‐71) were utilized. Human differentiated macrophages or mouse macrophages were divided into 9 groups (n = 3 per group), respectively, including (1) siNC, (2) siNC + LPS, (3) siNC + LPS + SOST 500 nM or 250 nM, (4) siNC + LPS + SOST 1 µM or 500 nM, (5) siNC + LPS + SOST 2 µM or 1 µM, (6) siLrp8 + LPS + SOST 500 nM or 250 nM, (7) siLrp8 + LPS + SOST 1µM or 500 nM, (8) siLrp8 + LPS + SOST 2 µM or 1 µM, (9) siLrp8 + LPS. Cells in groups (6‐9) were transfected with siRNA targeting human/mouse Lrp8 (human siLrp8: Santa Cruz Biotechnology sc‐40097, mouse siLrp8: Santa Cruz Biotechnology sc‐40098), while cells in groups (1‐5) were transfected with empty vector as control (siNC). 24 h later, cells in group (3)/(6), (4)/(7), and (5)/(8) were treated with recombinant human or mouse sclerostin for 3 h at concentration of 500 nM or 250 nM, 1 µM or 500 nM, as well as 2 µM or 1 µM, respectively, while cells in groups (1), (2), and (9) were treated with vehicle. Then, cells in groups (2‐9) were treated with LPS (100 ng/mL or 1 µg/mL) for 18 h. All groups of cell lysates were collected for determining the mRNA expression levels of TNF‐α, MCP‐1, and IL‐10 (human or mouse, respectively) by RT‐PCR.^[ [34] ^] Cell mediums were collected for determining the protein expression/secretion levels of TNF‐α, MCP‐1, and IL‐10 (human or mouse, respectively) by ELISA.^[ [34] ^]
(§2) Total RNA was extracted from cells following the protocols of Trizol reagent (Invitrogen, 15 596 026). […] The relative gene expression levels were calculated using the 2^−ΔΔCt method with GAPDH as the reference gene.^[ [40] ^] […]

[2] = tested on: mouse macrophages (RAW 264.7); assay: LPS‐induced inflammatory responses in mouse macrophages (RAW 264.7), siNC or siLrp8; assay type: cell-based
Procedure: as §1, §2

[3] = THP‐1, LPS 100 ng/mL 18 h, recombinant human sclerostin 500 nM-2 µM for 3 h, RT‐PCR and ELISA, n = 3
[4] = RAW 264.7, LPS 1 µg/mL 18 h, recombinant mouse sclerostin 250 nM-1 µM for 3 h, RT‐PCR and ELISA, n = 3

## sclerostin: recombinant human/mouse full‐length sclerostin protein
[1]; [3]
  mRNA expression and protein expression/secretion of IL‐10: promoted
  mRNA expression and protein expression/secretion of TNF‐α and MCP‐1: inhibited
[1]; THP‐1 with siLrp8, LPS 100 ng/mL 18 h
  Effects of sclerostin on cytokine/chemokine expression/secretion upon Lrp8 silencing: not detected
[2]; [4]
  mRNA expression and protein expression/secretion of IL‐10: promoted
  mRNA expression and protein expression/secretion of TNF‐α and MCP‐1: inhibited
[2]; RAW 264.7 with siLrp8, LPS 1 µg/mL 18 h
  Effects of sclerostin on cytokine/chemokine expression/secretion upon Lrp8 silencing: not detected
